From ChEMBL document CHEMBL3860070, “Optimization and biological evaluation of celastrol derivatives as Hsp90-Cdc37 interaction disruptors with improved druglike properties” (Bioorg Med Chem, 2016)

What was measured:
[1] = Antiproliferative activity against human A549 cells assessed as reduction in cell viability after 48 hrs by MTT assay; format: functional, cell-based; conditions: A549, 48 h
[2] = Antiproliferative activity against human MCF7 cells assessed as reduction in cell viability after 48 hrs by MTT assay; format: functional, cell-based; conditions: MCF7, 48 h
Homo sapiens = species: Homo sapiens; test: Inhibition of His-tagged full length Hsp90/GST-tagged Cdc37 middle domain (unknown origin) interaction at 50 uM after 1 hr by TR-FRET assay relative to control
[3] = Antiproliferative activity against human PANC1 cells assessed as reduction in cell viability after 48 hrs by MTT assay; format: functional, cell-based; conditions: PANC-1, 48 h
[4] = Inhibition of His-tagged full length Hsp90/GST-tagged Cdc37 middle domain (unknown origin) interaction after 1 hr by TR-FRET assay; parameters: species or system Homo sapiens
[5] = Permeability of the compound at pH 7.4 by PAMPA-based pION assay; format: ADME; conditions: read-out: permeability

| SMILES | IC50 [1] | IC50 [2] | inhibition (Homo sapiens) | IC50 [3] | IC50 [4] | Papp [5] |
| --- | --- | --- | --- | --- | --- | --- |
| CC1=C(O)C(=O)C=C2C1=CC=C1[C@@]2(C)CC[C@@]2(C)[C@@H]3C[C@](C)(C(=O)OC(C)C)CC[C@]3(C)CC[C@]12C | 2580 nM | 1320 nM | 51.5% | 1360 nM | – | – |
| CC1=C(O)C(=O)C=C2C1=CC=C1[C@@]2(C)CC[C@@]2(C)[C@@H]3C[C@](C)(C(=O)NCCS(C)(=O)=O)CC[C@]3(C)CC[C@]12C | 2410 nM | 1300 nM | 69.8% | 1200 nM | – | – |
| CC1=C(O)C(=O)C=C2C1=CC=C1[C@@]2(C)CC[C@@]2(C)[C@@H]3C[C@](C)(C(=O)NCCN4CCCC4)CC[C@]3(C)CC[C@]12C | 670 nM | 1100 nM | 89.2% | 1030 nM | 6500 nM | 23 ×10⁻⁶ cm/s |
| CC(=O)NCCNC(=O)[C@]1(C)CC[C@]2(C)CC[C@]3(C)C4=CC=C5C(=CC(=O)C(O)=C5C)[C@]4(C)CC[C@@]3(C)[C@@H]2C1 | 3120 nM | 2260 nM | 70.5% | 3000 nM | – | – |
| CC1=C(O)C(=O)C=C2C1=CC=C1[C@@]2(C)CC[C@@]2(C)[C@@H]3C[C@](C)(C(=O)N4CCCC(C)C4)CC[C@]3(C)CC[C@]12C (stereo partly drawn) | 2430 nM | 2030 nM | 47.9% | 1840 nM | – | – |
| CCNC(=O)[C@]1(C)CC[C@]2(C)CC[C@]3(C)C4=CC=C5C(=CC(=O)C(O)=C5C)[C@]4(C)CC[C@@]3(C)[C@@H]2C1 | 2080 nM | 1430 nM | 69% | 1820 nM | – | – |
| CC1=C(O)C(=O)C=C2C1=CC=C1[C@@]2(C)CC[C@@]2(C)[C@@H]3C[C@](C)(C(=O)NCCCn4ccnc4)CC[C@]3(C)CC[C@]12C | 3370 nM | 1840 nM | 71.7% | 1530 nM | – | 0.6 ×10⁻⁶ cm/s |
| CC1=C(O)C(=O)C=C2C1=CC=C1[C@@]2(C)CC[C@@]2(C)[C@@H]3C[C@](C)(C(=O)N4CCCC4)CC[C@]3(C)CC[C@]12C | 2850 nM | 1810 nM | 56.4% | 2110 nM | – | – |
| CC1=C(O)C(=O)C=C2C1=CC=C1[C@@]2(C)CC[C@@]2(C)[C@@H]3C[C@](C)(C(=O)N4CCCCC4)CC[C@]3(C)CC[C@]12C | 1920 nM | 1890 nM | 54.8% | 2290 nM | – | – |
| CC1=C(O)C(=O)C=C2C1=CC=C1[C@@]2(C)CC[C@@]2(C)[C@@H]3C[C@](C)(C(=O)NCCN(C)C)CC[C@]3(C)CC[C@]12C | 1080 nM | 640 nM | 93.6% | 1230 nM | 5630 nM | 45 ×10⁻⁶ cm/s |
| CC1=C(O)C(=O)C=C2C1=CC=C1[C@@]2(C)CC[C@@]2(C)[C@@H]3C[C@](C)(C(=O)OCC(C)C)CC[C@]3(C)CC[C@]12C | 3420 nM | 2060 nM | 28.4% | 1900 nM | – | – |
| CNC(=O)[C@]1(C)CC[C@]2(C)CC[C@]3(C)C4=CC=C5C(=CC(=O)C(O)=C5C)[C@]4(C)CC[C@@]3(C)[C@@H]2C1 | 1930 nM | 1200 nM | 69.2% | 1420 nM | – | – |
